Legend:
CK1α = target: T1, CK1α (Homo sapiens, UniProt P48729+Q96SW2); assay: HiBiT degradation assay, CK1α, Procedure A; format: cell-based; details: six hours incubation
T1 construct: CSNK1A1-HiBit KI HEK293(LgBit) Cells; host or cells: HEK293(LgBit) knock-in cells
Summary of the method: (§1)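 Cells in DMEM+10% FBS at 1×10^6 cells/ml were added to pre-spotted compound (10-point dose response, 10 μM to 0.005 μM, 0.1% DMSO) and incubated 6 h at 37° C. Nano-Glo HiBiT lytic reagent was added and luminescence read. DC50 and Ymin came from 4-parameter curve fits.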

GSPT1 = GSPT1 (Homo sapiens, UniProt P15170+Q96SW2); assay: HiBiT degradation assay, GSPT1, Procedure A; format: cell-based; design: HiBit-GSPT1 KI HEK293(LgBit) Cells; host or cells: HEK293(LgBit) knock-in cells; details: six hours incubation
Summary of the method: as §1

T1 sequence (P48729 whole entry): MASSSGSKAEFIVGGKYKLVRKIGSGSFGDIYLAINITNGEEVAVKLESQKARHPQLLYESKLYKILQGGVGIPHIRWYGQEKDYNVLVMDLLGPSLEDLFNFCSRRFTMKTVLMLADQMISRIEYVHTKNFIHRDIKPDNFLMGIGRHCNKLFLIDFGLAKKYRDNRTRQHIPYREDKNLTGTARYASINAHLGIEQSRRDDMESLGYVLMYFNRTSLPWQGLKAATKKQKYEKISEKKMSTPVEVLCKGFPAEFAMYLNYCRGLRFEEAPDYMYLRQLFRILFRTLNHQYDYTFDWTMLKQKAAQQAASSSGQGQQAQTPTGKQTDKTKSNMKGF
T1 sequence (Q96SW2 whole entry): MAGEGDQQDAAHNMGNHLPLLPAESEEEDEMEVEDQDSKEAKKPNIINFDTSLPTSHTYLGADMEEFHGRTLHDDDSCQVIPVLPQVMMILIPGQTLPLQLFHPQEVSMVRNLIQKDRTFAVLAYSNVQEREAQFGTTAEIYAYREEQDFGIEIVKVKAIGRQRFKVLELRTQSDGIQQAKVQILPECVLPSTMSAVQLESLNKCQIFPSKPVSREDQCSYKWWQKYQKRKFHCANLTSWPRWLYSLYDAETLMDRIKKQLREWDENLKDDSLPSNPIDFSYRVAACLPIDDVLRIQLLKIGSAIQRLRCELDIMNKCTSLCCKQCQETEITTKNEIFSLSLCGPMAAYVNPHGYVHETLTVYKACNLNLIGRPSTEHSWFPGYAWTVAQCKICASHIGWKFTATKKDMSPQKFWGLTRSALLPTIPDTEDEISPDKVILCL
T1 sequence (Q16531 whole entry partner): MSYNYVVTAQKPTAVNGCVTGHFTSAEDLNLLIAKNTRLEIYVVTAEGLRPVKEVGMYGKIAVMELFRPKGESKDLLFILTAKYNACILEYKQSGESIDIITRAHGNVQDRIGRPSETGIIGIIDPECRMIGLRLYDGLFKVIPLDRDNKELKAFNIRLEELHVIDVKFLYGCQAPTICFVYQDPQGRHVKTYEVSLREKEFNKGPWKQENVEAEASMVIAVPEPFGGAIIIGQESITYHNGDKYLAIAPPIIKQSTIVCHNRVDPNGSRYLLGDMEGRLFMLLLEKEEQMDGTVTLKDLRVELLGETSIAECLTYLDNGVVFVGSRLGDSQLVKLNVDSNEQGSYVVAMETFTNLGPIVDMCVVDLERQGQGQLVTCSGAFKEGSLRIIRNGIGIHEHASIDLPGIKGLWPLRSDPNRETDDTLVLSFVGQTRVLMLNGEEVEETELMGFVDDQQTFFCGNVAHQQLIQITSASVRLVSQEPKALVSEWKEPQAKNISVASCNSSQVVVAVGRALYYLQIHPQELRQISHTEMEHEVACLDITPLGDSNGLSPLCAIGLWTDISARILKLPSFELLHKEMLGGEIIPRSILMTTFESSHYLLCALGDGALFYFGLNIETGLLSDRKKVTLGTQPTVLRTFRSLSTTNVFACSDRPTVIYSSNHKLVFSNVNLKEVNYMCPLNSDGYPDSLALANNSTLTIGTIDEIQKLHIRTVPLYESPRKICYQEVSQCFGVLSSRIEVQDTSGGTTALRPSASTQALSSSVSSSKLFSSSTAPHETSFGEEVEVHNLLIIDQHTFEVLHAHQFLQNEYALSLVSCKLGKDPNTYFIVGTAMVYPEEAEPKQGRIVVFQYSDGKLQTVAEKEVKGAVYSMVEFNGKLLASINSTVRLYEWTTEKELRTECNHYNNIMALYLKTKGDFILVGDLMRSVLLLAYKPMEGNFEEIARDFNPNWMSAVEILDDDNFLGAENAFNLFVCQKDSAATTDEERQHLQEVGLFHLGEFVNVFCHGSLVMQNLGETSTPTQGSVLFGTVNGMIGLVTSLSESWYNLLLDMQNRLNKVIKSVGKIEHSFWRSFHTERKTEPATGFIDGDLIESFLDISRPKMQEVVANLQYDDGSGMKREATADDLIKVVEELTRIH
GSPT1, sequence (P15170 whole entry): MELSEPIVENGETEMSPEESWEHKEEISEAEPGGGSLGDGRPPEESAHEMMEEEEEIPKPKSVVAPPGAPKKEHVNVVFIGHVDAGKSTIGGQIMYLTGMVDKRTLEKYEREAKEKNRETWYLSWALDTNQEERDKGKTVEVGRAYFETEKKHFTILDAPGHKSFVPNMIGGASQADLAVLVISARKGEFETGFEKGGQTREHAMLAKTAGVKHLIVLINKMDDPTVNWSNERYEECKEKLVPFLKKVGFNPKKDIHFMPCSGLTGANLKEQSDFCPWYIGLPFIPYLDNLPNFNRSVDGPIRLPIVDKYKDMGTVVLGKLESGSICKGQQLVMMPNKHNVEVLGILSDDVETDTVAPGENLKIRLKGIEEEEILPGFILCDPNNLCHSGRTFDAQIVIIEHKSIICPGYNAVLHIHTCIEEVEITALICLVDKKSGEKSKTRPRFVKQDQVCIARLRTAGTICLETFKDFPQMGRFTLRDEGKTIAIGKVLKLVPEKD
GSPT1, sequence (Q96SW2 whole entry): as the sequence (Q96SW2 whole entry) above
GSPT1, sequence (Q16531 whole entry partner): as the sequence (Q16531 whole entry partner) above

Row | SMILES | CK1α Ymin (CK1α) | DC50 (CK1α) [nM] | DC50 (GSPT1) [nM] | GSPT1 Ymin (GSPT1)
1 | Cn1ncc(-c2ccc3c(c2)CN(C2CCC(=O)NC2=O)C3=O)c1-c1ccc(N2CCCC2)cc1 (centres unmarked) [Example 159] | D (D = >10- 25% remaining) | < 25 | ≥ 25 | F (F = >75-100% remaining)
2 | Cn1ncc(-c2ccc3c(c2)CN(C2CCC(=O)NC2=O)C3=O)c1-c1ccc(S(=O)(=O)NC2CCCCC2)cc1 (centres unmarked) [Example 160] | E (E = >25-75% remaining) | ≥ 25 | ≥ 25 | C (C = 0-10% remaining)
3 | Cc1ccccc1-c1c(-c2ccc3c(c2)CN(C2CCC(=O)NC2=O)C3=O)ncn1C (centres unmarked) [Example 161] | D (D = >10- 25% remaining) | < 25 | ≥ 25 | F (F = >75-100% remaining)
4 | Cc1cccc(-c2c(-c3ccc4c(c3)CN(C3CCC(=O)NC3=O)C4=O)ncn2C)c1 (centres unmarked) [Example 162] | C (C = 0-10% remaining) | < 25 | < 25 | E (E = >25-75% remaining)
5 | Cn1cnc(-c2ccc3c(c2)CN(C2CCC(=O)NC2=O)C3=O)c1-c1ccc(O)cc1 (centres unmarked) [Example 163] | C (C = 0-10% remaining) | < 25 | ≥ 25 | E (E = >25-75% remaining)
6 | Cn1cnc(-c2ccc3c(c2)CN(C2CCC(=O)NC2=O)C3=O)c1-c1ccccc1F (centres unmarked) [Example 164] | C (C = 0-10% remaining) | < 25 | < 25 | E (E = >25-75% remaining)
7 | Cn1cnc(-c2ccc3c(c2)CN(C2CCC(=O)NC2=O)C3=O)c1-c1ccc(C#N)cc1 (centres unmarked) [Example 165] | D (D = >10- 25% remaining) | < 25 | ≥ 25 | F (F = >75-100% remaining)
8 | Cc1ccc(-c2c(-c3ccc4c(c3)CN(C3CCC(=O)NC3=O)C4=O)ncn2C)c(C)c1 (centres unmarked) [Example 166] | E (E = >25-75% remaining) | < 25 | ≥ 25 | E (E = >25-75% remaining)
9 | Cc1cccc(-c2c(-c3ccc4c(c3)CN(C3CCC(=O)NC3=O)C4=O)ncn2C)c1C (centres unmarked) [Example 167] | E (E = >25-75% remaining) | < 25 | < 25 | F (F = >75-100% remaining)
10 | Cc1c(F)cccc1-c1c(-c2ccc3c(c2)CN(C2CCC(=O)NC2=O)C3=O)ncn1C (centres unmarked) [Example 169] | E (E = >25-75% remaining) | < 25 | ≥ 25 | F (F = >75-100% remaining)
11 | Cc1ccc(F)c(-c2c(-c3ccc4c(c3)CN(C3CCC(=O)NC3=O)C4=O)ncn2C)c1 (centres unmarked) [Example 170] | D (D = >10- 25% remaining) | < 25 | ≥ 25 | F (F = >75-100% remaining)
12 | Cc1cccc(-c2c(-c3ccc4c(c3)CN(C3CCC(=O)NC3=O)C4=O)ncn2C)c1F (centres unmarked) [Example 171] | D (D = >10- 25% remaining) | < 25 | < 25 | F (F = >75-100% remaining)
13 | Cc1cccc(F)c1-c1c(-c2ccc3c(c2)CN(C2CCC(=O)NC2=O)C3=O)ncn1C (centres unmarked) [Example 172] | E (E = >25-75% remaining) | < 25 | ≥ 25 | F (F = >75-100% remaining)
14 | Cn1ncc(-c2ccc3c(c2)CN(C2CCC(=O)NC2=O)C3=O)c1-c1cccc(Cl)c1 (centres unmarked) [Example 173] | E (E = >25-75% remaining) | < 25 | ≥ 25 | F (F = >75-100% remaining)
15 | Cn1ncc(-c2ccc3c(c2)CN(C2CCC(=O)NC2=O)C3=O)c1-c1ccc(Cl)cc1 (centres unmarked) [Example 174] | D (D = >10- 25% remaining) | < 25 | < 25 | E (E = >25-75% remaining)
16 | Cn1cnc(-c2ccc3c(c2)CN(C2CCC(=O)NC2=O)C3=O)c1-c1ccccc1Cl (centres unmarked) [Example 175] | D (D = >10- 25% remaining) | < 25 | ≥ 25 | F (F = >75-100% remaining)
17 | Cn1cnc(-c2ccc3c(c2)CN(C2CCC(=O)NC2=O)C3=O)c1-c1ccc(F)cc1F (centres unmarked) [Example 176] | D (D = >10- 25% remaining) | < 25 | < 25 | E (E = >25-75% remaining)
18 | Cn1cnc(-c2ccc3c(c2)CN(C2CCC(=O)NC2=O)C3=O)c1-c1ccc(F)c(F)c1 (centres unmarked) [Example 177] | D (D = >10- 25% remaining) | < 25 | < 25 | E (E = >25-75% remaining)
19 | Cn1ncc(-c2ccc3c(c2)CN(C2CCC(=O)NC2=O)C3=O)c1-c1cc(F)cc(F)c1 (centres unmarked) [Example 178] | D (D = >10- 25% remaining) | < 25 | < 25 | F (F = >75-100% remaining)

Row | SMILES | CK1α Ymin (CK1α) | DC50 (CK1α) [nM] | DC50 (GSPT1) [nM] | GSPT1 Ymin (GSPT1)
20 | Cn1cnc(-c2ccc3c(c2)CN(C2CCC(=O)NC2=O)C3=O)c1-c1cc(F)ccc1F (centres unmarked) [Example 179] | D (D = >10- 25% remaining) | < 25 | < 25 | E (E = >25-75% remaining)
21 | Cc1cc(C#N)ccc1-c1c(-c2ccc3c(c2)CN(C2CCC(=O)NC2=O)C3=O)ncn1C (centres unmarked) [Example 180] | E (E = >25-75% remaining) | ≥ 25 | ≥ 25 | F (F = >75-100% remaining)
22 | Cn1cnc(-c2ccc3c(c2)CN(C2CCC(=O)NC2=O)C3=O)c1-c1ccc(Cl)s1 (centres unmarked) [Example 181] | C (C = 0-10% remaining) | < 25 | ≥ 25 | E (E = >25-75% remaining)
23 | CC(C)c1ccccc1-c1c(-c2ccc3c(c2)CN(C2CCC(=O)NC2=O)C3=O)ncn1C (centres unmarked) [Example 182] | E (E = >25-75% remaining) | < 25 | ≥ 25 | F (F = >75-100% remaining)
24 | CC(C)c1cccc(-c2c(-c3ccc4c(c3)CN(C3CCC(=O)NC3=O)C4=O)ncn2C)c1 (centres unmarked) [Example 183] | E (E = >25-75% remaining) | < 25 | ≥ 25 | F (F = >75-100% remaining)
25 | Cn1cnc(-c2ccc3c(c2)CN(C2CCC(=O)NC2=O)C3=O)c1-c1cc(F)cc(C#N)c1 (centres unmarked) [Example 185] | D (D = >10- 25% remaining) | < 25 | ≥ 25 | F (F = >75-100% remaining)
26 | Cn1cnc(-c2ccc3c(c2)CN(C2CCC(=O)NC2=O)C3=O)c1-c1cc(C#N)ccc1F (centres unmarked) [Example 186] | E (E = >25-75% remaining) | ≥ 25 | ≥ 25 | F (F = >75-100% remaining)
27 | Cn1cnc(-c2ccc3c(c2)CN(C2CCC(=O)NC2=O)C3=O)c1-c1ccc(C#N)cc1F (centres unmarked) [Example 187] | D (D = >10- 25% remaining) | < 25 | ≥ 25 | F (F = >75-100% remaining)
28 | COc1ccc(-c2c(-c3ccc4c(c3)CN(C3CCC(=O)NC3=O)C4=O)ncn2C)c(C)c1 (centres unmarked) [Example 188] | C (C = 0-10% remaining) | < 25 | < 25 | E (E = >25-75% remaining)
29 | COc1ccc(-c2c(-c3ccc4c(c3)CN(C3CCC(=O)NC3=O)C4=O)ncn2C)c(F)c1 (centres unmarked) [Example 189] | C (C = 0-10% remaining) | < 25 | < 25 | E (E = >25-75% remaining)
30 | COc1cccc(-c2c(-c3ccc4c(c3)CN(C3CCC(=O)NC3=O)C4=O)ncn2C)c1F (centres unmarked) [Example 190] | E (E = >25-75% remaining) | < 25 | < 25 | E (E = >25-75% remaining)
31 | COc1ccc(F)cc1-c1c(-c2ccc3c(c2)CN(C2CCC(=O)NC2=O)C3=O)ncn1C (centres unmarked) [Example 191] | E (E = >25-75% remaining) | < 25 | < 25 | E (E = >25-75% remaining)
32 | COc1cc(F)ccc1-c1c(-c2ccc3c(c2)CN(C2CCC(=O)NC2=O)C3=O)ncn1C (centres unmarked) [Example 192] | E (E = >25-75% remaining) | < 25 | < 25 | E (E = >25-75% remaining)
33 | COc1ccc(F)c(-c2c(-c3ccc4c(c3)CN(C3CCC(=O)NC3=O)C4=O)ncn2C)c1 (centres unmarked) [Example 193] | D (D = >10- 25% remaining) | < 25 | < 25 | F (F = >75-100% remaining)
34 | COc1ccc(-c2c(-c3ccc4c(c3)CN(C3CCC(=O)NC3=O)C4=O)ncn2C)cc1F (centres unmarked) [Example 194] | C (C = 0-10% remaining) | < 25 | < 25 | E (E = >25-75% remaining)
35 | COc1c(F)cccc1-c1c(-c2ccc3c(c2)CN(C2CCC(=O)NC2=O)C3=O)ncn1C (centres unmarked) [Example 195] | D (D = >10- 25% remaining) | < 25 | < 25 | E (E = >25-75% remaining)
36 | Cc1ccc(Cl)cc1-c1c(-c2ccc3c(c2)CN(C2CCC(=O)NC2=O)C3=O)ncn1C (centres unmarked) [Example 196] | E (E = >25-75% remaining) | < 25 | < 25 | F (F = >75-100% remaining)
37 | Cc1ccc(-c2c(-c3ccc4c(c3)CN(C3CCC(=O)NC3=O)C4=O)ncn2C)cc1Cl (centres unmarked) [Example 197] | E (E = >25-75% remaining) | < 25 | < 25 | E (E = >25-75% remaining)
38 | Cc1ccc(-c2c(-c3ccc4c(c3)CN(C3CCC(=O)NC3=O)C4=O)ncn2C)c(Cl)c1 (centres unmarked) [Example 198] | C (C = 0-10% remaining) | < 25 | < 25 | E (E = >25-75% remaining)

Reference: patent publication US20240158370A1, “CK1 alpha AND DUAL CK1 alpha / GSPT1 DEGRADING COMPOUNDS” (Innovo Therapeutics, Inc., priority 2022, published 2024)
